# “Also recorded” adds a separate entry of the source.
# Legend:
# [1] = test system: primary chicken embryonic connective tissue fibroblasts; experiment: Fibroblast growth assay; format: cell-based; settings: for effect on fibroblast growth / cell numbers: 3 days treatment, 2% donor calf serum
# Method: Primary chicken embryonic connective tissue fibroblasts (CEFs) were cultured as previously described in Martins-Green and Feugate (1998). Briefly, these fibroblasts were isolated from 10-day-old chicken embryo body walls, plated at 6×10^6 cells/100 mm plate and cultured for 4 days in 199 medium with 5% donor calf serum, 1% chick serum and 0.3% tryptose phosphate broth. These cultures were passaged once (secondary cultures); the cells were plated at 0.4×10^6 cells/35 mm plate in 199/tryptose phosphate broth and 2% donor calf serum.
# Secondary fibroblasts were plated at 0.4×10^6 cells/35 mm plate and cCAF was added to experimental plates. For each experiment, plating efficiency was determined by trypsinizing plates four hours after plating. Cells were counted with a Coulter particle counter to confirm even plating of cells. The media was replaced approximately every 16 hr with 1 ml of […] 199 medium containing 0.3% tryptose phosphate broth and 2% donor calf serum, and 100-1000 ng cCAF [9-90 nM] or C- or N-peptide [64-640 nM] was added to the experimental plates, whereas, control plates contained media only. On day 3, plates were trypsinized to remove all cells and cells were counted using a Coulter counter. To test for specificity, anti-cCAF rabbit serum was pre-incubated with cCAF (3 μl serum/750 ng cCAF [68 nM] or N-peptide [480 nM]) for 1 hr at room temperature before being added to cells.
# [2] = test system: chicken chorioallantoic membrane (CAM); settings: in vivo; cited from earlier work
# [3] = test system: chicken CXC receptor 1 (CXCR1); experiment: Chicken cCXCR1-mediated calcium release; format: cell-based; settings: NIH #373 cells overexpressing chicken CXCR1
# Method: NIH #373 cells overexpressing the chicken CXC receptor 1 (CXCR1) were exposed to the full-length cCAF molecule, the 15-amino N-terminal peptide of cCAF, or the 28-amino acid C-terminal peptide and calcium release was then measured.
# fibroblasts = experiment: Induction of differentiation of fibroblasts to myofibroblasts by IL-8 forms; format: cell-based; settings: IL-8-77 versus IL-8-72
# [4] = test system: fibroblast-seeded collagen gels; experiment: Collagen gel contraction by fibroblasts; format: cell-based, chicken
# Method: 1.5 ml Vitrogen 100 collagen gels were made in 35 mm plates. Secondary fibroblasts were plated at 0.4×10^6 cells/35 mm plate on top of the gels. After the cells had adhered to the collagen, cCAF was added to experimental plates. The medium was replaced approximately every 16 hr with 1 ml of 199 supplemented with 0.3% tryptose phosphate broth and 2% donor calf serum, and 750 ng cCAF [68 nM] or N-peptide [480 nM] was added to the experimental plates. Control plates contained media only. After 4 days, gels were released. Treatment was continued for 2 more days and gels were photographed every 12 hours. The photographs were used for evaluation of gel contraction by determining the area of the gel using NIH image analysis.
# [5] = test system: Full-thickness excision wounds on the underside of the wings of 2-week-old chicks; experiment: Wounding experiment: closure of excision wounds; format: in vivo, chicken; settings: 1 μg every other day, topical; versus vehicle (H2O) on contralateral wing
# Method: Full-thickness excision wounds (approximately 0.5×0.5 cm) were made, using a scalpel blade, on the underside of the wings of 2-week-old chicks. The left wing was treated with vehicle alone (water), and the right wing with […] cCAF [90 nM]. The wounds were photographed immediately after wounding and then covered with Biocclusive bandage. 50 μl vehicle (water) or cCAF was deposited through the bandage onto the wound using a 30-gauge needle. This procedure was repeated the next day and every other day thereafter. On days 3, 5 and 7, the bandages were removed and the wounds were photographed before replacing the bandages and applying the treatment again.
# α-SMA [6] = experiment: Immunostaining for α-SMA in fibroblast cultures and collagen gel sections; format: cell-based, chicken; settings: versus control gels
# Method: Plates of fibroblasts were treated with cCAF as described previously. After 4 days, the cells were rinsed with PBS, fixed in 4% paraformaldehyde, permeabilized with 0.15% Triton X-100 and incubated with PBS containing 0.1M glycine for 10 min. Cells were blocked for 30 min with 10% goat serum in PBS, incubated with mouse anti-α-SMA, to a final IgG concentration of 20 μg/ml, in 1% BSA/PBS for 1hr at room temperature (RT), and washed three times with 0.1% BSA/PBS for 10 min each. The cells were then incubated in goat anti-mouse FITC or sheep anti-mouse Texas Red (1:100) in 1% BSA/PBS for 1 hr at RT, washed three times for 10 min with 0.1% BSA in PBS and mounted with Vectashield. Collagen gels were rinsed with PBS, fixed in 4% paraformaldehyde for 2 hr, washed three times 30 min each with PBS, and incubated for an additional 30 min in PBS containing 0.1M glycine. This treatment was followed by incubation at 4° C. overnight in 15% sucrose and then incubated under the same conditions in 30% sucrose. After a brief rinse with PBS, the gels were frozen in OCT, sections prepared and collected on gelatin-coated slides, rinsed with PBS, fixed in 4% paraformaldehyde for 10 min, and then incubated again in PBS containing 0.1M glycine for 10 min. This was followed by blocking for 30 min with 10% goat serum in PBS, incubation in primary and secondary antibody as described above, and mounting with Vectashield.
# α-SMA [7] = experiment: Immunoblotting for α-SMA in fibroblast extracts; format: cell-based, chicken
# Method: Plates of fibroblasts were treated as described previously, with 750 ng/ml cCAF or 2.5 ng/ml TGFβ. To block TGFβ, or cCAF activity, anti-cCAF (3 μl) or anti-TGFβ (1 μl) antibody was pre-incubated in 1 ml media for 1 hr at room temperature before being added to cells. After 4 days of treatment, protein extracts were prepared in 1 ml 150 mM RIPA buffer containing protease inhibitors. Protein concentrations were determined using the DC protein assay kit and samples were adjusted to contain equal amounts of protein. SDS-PAGE was performed on 7.5% separating Doucet gels (Doucet and Trifaro, 1988). Protein transfer to nitrocellulose was performed using a wet-transfer apparatus (Bio-Rad) at 100V for 45 min. The membranes were blocked for 1 hr in 5% milk in TTBS and then incubated overnight at 4° C. in mouse anti-α-SMA, to a final IgG concentration of 5 μg/ml, in 1% milk in TTBS. The membranes were washed 3 times for 20 min each with TTBS, incubated in anti-mouse HRP at 1:10,000 in 1% milk for 1hr and washed as above, and the bands visualized using the ECL.
substance,measurement,setting,value
C-peptide: 28-amino acid peptide extending from residues 59-86 of cCAF (SEQ ID NO:2) (CLDPTAPWVQLIVKALMAKAQLNSDAPL; Gallusgallus) [reference compound],effect on fibroblast growth / cell numbers,[1],did not suppress the growth of connective tissue fibroblasts
same,effect on fibroblast growth / cell numbers,[1]; listed as C-terminal peptide,did not cause a decrease in cell numbers
same,angiogenic activity of the peptide by itself,[2],angiogenic in vivo
same,calcium release,[3]; 400 ng,failed to induce calcium release
same,calcium release,[3]; 800 ng,"release of calcium that was similar in magnitude, but differed in time course from the N-peptide-induced release"
"IL-8-77: 77-residue form of human interleukin-8, SEQ ID NO:4","potency at inducing differentiation of fibroblasts to myofibroblasts, relative to the other IL-8 form",fibroblasts,more potent at inducing differentiation of fibroblasts to myofibroblasts
"LSQGRTLVKMGNELR (Gallusgallus) [N-peptide, 15-amino acid N-terminal peptide of cCAF]",effect on fibroblast growth / cell numbers,[1],suppresses the growth of fibroblasts to a level similar to that caused by the whole cCAF molecule; also recorded: decrease in growth similar to that induced by cCAF
same,dose- and time-dependent pattern of suppression of growth,"[1]; compared with whole cCAF, not shown","same as that of the whole cCAF molecule, albeit at a higher molar concentration"
same,contraction of collagen gels after release,"[4]; 750 ng/ml, 4-5 days treatment before release, versus untreated cells",much greater contraction; also recorded: stimulated fibroblasts to contract collagen gels more efficiently than untreated cells; also recorded: contracted the gels more tightly than did untreated cells
same,contraction of fibroblast clusters on collagen,[4]; versus control cells,form clusters that are much tighter and generally pull away from the collagen; also recorded: more contracted than clusters in control cells
same,wound closure at day 3 (days 0-3),[5],"accelerated wound closure during days 0-3, albeit less strongly than with the whole cCAF molecule"
same,calcium release,[3]; 400 ng,"similar, albeit somewhat slower, release"
same,α-SMA immunolabeling of sections of fibroblast-seeded collagen gels,α-SMA [6],more cells with fibers staining for α-SMA than control gels
same,α-SMA levels by immunoblot,"α-SMA [7]; 750 ng/ml, versus untreated or C-peptide treated cells",much higher levels of α-SMA; also recorded: increased levels of α-SMA
"TGFβ: Transforming Growth Factorβ-1, known stimulator of myofibroblast differentiation [reference compound]",α-SMA expression after TGFβ treatment,α-SMA [7]; 2.5 ng/ml,stimulation of α-SMA
